Experiments:
Type in all cases: in vivo
[1] = tested on: Bemisia tabaci; assay: Bemisia tabaci (Cotton White Fly): Feeding/Contact Activity; conditions: foliar, 144 h, application rate of 200 ppm, sprayed cotton leaf discs, adult white flies, 6 days after incubation
Method: Cotton leaf discs were placed on agar in 24-well microtiter plates and sprayed with aqueous test solutions prepared from 10,000 ppm DMSO stock solutions. After drying the leaf discs were infested with adult white flies. The samples were checked for mortality 6 days after incubation.

[2] = tested on: Euschistus heros; assay: Euschistus heros (Neotropical Brown Stink Bug); conditions: 120 h, application rate of 200 ppm, sprayed soybean leaves, N2 nymphs, 5 days after infestation, read-out: effect in at least one of the two categories (mortality or growth inhibition)
Method: Soybean leaves on agar in 24-well microtiter plates were sprayed with aqueous test solutions prepared from 10,000 ppm DMSO stock solutions. After drying the leaves were infested with N2 nymphs. The samples were assessed for mortality and growth inhibition in comparison to untreated samples 5 days after infestation.

[3] = tested on: Myzus persicae; assay: Myzus persicae (Green Peach Aphid): Feeding/Contact Activity; conditions: foliar, 144 h, application rate of 200 ppm, sprayed sunflower leaf discs, aphid population of mixed ages, 6 days after infestation
Method: Sunflower leaf discs were placed onto agar in a 24-well microtiter plate and sprayed with aqueous test solutions prepared from 10,000 ppm DMSO stock solutions. After drying, the leaf discs were infested with an aphid population of mixed ages. The samples were assessed for mortality 6 days after infestation.

[4] = tested on: Myzus persicae; assay: Myzus persicae (Green Peach Aphid). Systemic Activity; conditions: 144 h, test rate of 24 ppm, roots of infested pea seedlings in test solution, 6 days
Method: Roots of pea seedlings infested with an aphid population of mixed ages were placed directly into aqueous test solutions prepared from 10,000 DMSO stock solutions. The samples were assessed for mortality 6 days after placing seedlings into test solutions.

[5] = tested on: Plutella xylostella; assay: Plutella xylostella (Diamond Back Moth); conditions: 120 h, application rate of 200 ppm, artificial diet, L2 larvae, 5 days after infestation, read-out: effect in at least one of the two categories (mortality or growth inhibition)
Method: (§1) 24-well microtiter plates with artificial diet were treated with aqueous test solutions prepared from 10,000 ppm DMSO stock solutions by pipetting. After drying, the plates were infested with L2 larvae (10 to 15 per well). The samples were assessed for mortality and growth inhibition in comparison to untreated samples 5 days after infestation.

[6] = tested on: Spodoptera littoralis; assay: Spodoptera littoralis (Egyptian Cotton Leaf Worm), sprayed cotton leaf discs; conditions: foliar, 72 h, application rate of 200 ppm, L1 larvae, 3 days after infestation
Method: Cotton leaf discs were placed onto agar in 24-well microtiter plates and sprayed with aqueous test solutions prepared from 10,000 ppm DMSO stock solutions. After drying the leaf discs were infested with five L1 larvae. The samples were assessed for mortality, anti-feeding effect, and growth inhibition in comparison to untreated samples 3 days after infestation. Control of Spodoptera littoralis by a test sample is given when at least one of the categories mortality, anti-feedant effect, and growth inhibition is higher than the untreated sample.

[7] = tested on: Spodoptera littoralis; assay: Spodoptera littoralis (Egyptian Cotton Leaf Worm), uptake by lettuce roots from agar; conditions: 144 h, test rate of 12.5 ppm, mixed with agar, absorbed by lettuce roots, Spodoptera eggs, 6 days after infestation, read-out: effect in at least one of the three categories (mortality, anti-feeding, or growth inhibition)
From the text: Test compounds were applied by pipette from 10,000 ppm DMSO stock solutions into 24-well plates and mixed with agar. Lettuce seeds were placed onto the agar and the multi well plate was closed by another plate which contained also agar. After 7 days the compound was absorbed by the roots and the lettuce grew into the lid plate. The lettuce leaves were then cut off into the lid plate. Spodoptera eggs were pipetted through a plastic stencil onto a humid gel blotting paper and the lid plate was closed with it. The samples were assessed for mortality, anti-feedant effect and growth inhibition in comparison to untreated samples 6 days after infestation.

[8] = tested on: Diabrotica balteata; assay: Diabrotica balteata (Corn Root Worm); conditions: 96 h, application rate of 200 ppm, sprayed maize sprouts, L2 larvae, 4 days after infestation, read-out: effect in at least one of the two categories (mortality or growth inhibition)
Method: as §1, with “Maize sprouts placed onto an agar layer in 24-well” for “24-well”, “plates” for “plates with artificial diet”, “spraying.” for “pipetting.”, “(6” for “(10”, “10” for “15”, “4” for “5”

CCn1c(C(F)(F)F)cc2nc(-c3ncc(NC(=O)C4CC4)cc3S(=O)(=O)CC)n(C)c2c1=O [Compound A7, N-[6-[5-ethyl-3-methyl-4-oxo-6-(trifluoromethyl)imidazo[4,5-c]pyridin-2-yl]-5-ethylsulfonyl-3-pyridyl]cyclopropanecarboxamide]
≥ 80%: mortality at 200 ppm [1] | percent effect (mortality or growth inhibition) at 200 ppm [2] | mortality at 200 ppm [3] | mortality at 24 ppm [4] | percent effect (mortality or growth inhibition) at 200 ppm [5] | percent control (mortality, anti-feeding effect or growth inhibition) at 200 ppm [6]

CCn1c(C(F)(F)F)cc2nc(-c3ncc(N(C)C(=O)C4CC4)cc3S(=O)(=O)CC)n(C)c2c1=O [Compound A9, N-[6-[5-ethyl-3-methyl-4-oxo-6-(trifluoromethyl)imidazo[4,5-c]pyridin-2-yl]-5-ethylsulfonyl-3-pyridyl]-N-methyl-cyclopropanecarboxamide]
≥ 80%: mortality at 200 ppm [1] | percent effect (mortality or growth inhibition) at 200 ppm [2] | mortality at 200 ppm [3] | mortality at 24 ppm [4] | percent effect (mortality or growth inhibition) at 200 ppm [5] | percent control (mortality, anti-feeding effect or growth inhibition) at 200 ppm [6] | percent effect (mortality, anti-feeding or growth inhibition) at 12.5 ppm [7]

CCn1c(C(F)(F)F)cc2nc(-c3nc(C(=O)NC4CC4)ccc3S(=O)(=O)CC)n(C)c2c1=O [Compound A20, N-cyclopropyl-6-[5-ethyl-3-methyl-4-oxo-6-(trifluoromethyl)imidazo[4,5-c]pyridin-2-yl]-5-ethylsulfonyl-pyridine-2-carboxamide]
≥ 80%: mortality at 200 ppm [1] | percent effect (mortality or growth inhibition) at 200 ppm [2] | mortality at 200 ppm [3] | mortality at 24 ppm [4] | percent effect (mortality or growth inhibition) at 200 ppm [5] | percent control (mortality, anti-feeding effect or growth inhibition) at 200 ppm [6] | percent effect (mortality, anti-feeding or growth inhibition) at 12.5 ppm [7]

CCn1c(C(F)(F)F)cc2nc(-c3ncc(N/C=N/OC)cc3S(=O)(=O)CC)n(C)c2c1=O [Compound A26, N-[6-[5-ethyl-3-methyl-4-oxo-6-(trifluoromethyl)imidazo[4,5-c]pyridin-2-yl]-5-ethylsulfonyl-3-pyridyl]-N′-methoxy-formamidine]
≥ 80%: effect mortality or growth inhibition at 200 ppm [8] | percent effect (mortality or growth inhibition) at 200 ppm [2] | percent effect (mortality or growth inhibition) at 200 ppm [5] | percent control (mortality, anti-feeding effect or growth inhibition) at 200 ppm [6] | percent effect (mortality, anti-feeding or growth inhibition) at 12.5 ppm [7]

CCn1c(C(F)(F)F)cc2nc(-c3nc(NC4CC4)c(Cl)cc3S(=O)(=O)CC)n(C)c2c1=O [Compound A31, 2-[5-chloro-6-(cyclopropylamino)-3-ethylsulfonyl-2-pyridyl]-5-ethyl-3-methyl-6-(trifluoromethyl)imidazo[4,5-c]pyridin-4-one]
≥ 80%: mortality at 200 ppm [1] | effect mortality or growth inhibition at 200 ppm [8] | percent effect (mortality or growth inhibition) at 200 ppm [2] | percent effect (mortality or growth inhibition) at 200 ppm [5] | percent control (mortality, anti-feeding effect or growth inhibition) at 200 ppm [6] | percent effect (mortality, anti-feeding or growth inhibition) at 12.5 ppm [7]

CCn1c(C(F)(F)F)cc2nc(-c3nc(N(C(=O)C4CC4)C(=O)C4CC4)c(Cl)cc3S(=O)(=O)CC)n(C)c2c1=O [Compound A40, N-[3-chloro-6-[5-ethyl-3-methyl-4-oxo-6-(trifluoromethyl)imidazo[4,5-c]pyridin-2-yl]-5-ethylsulfonyl-2-pyridyl]-N-(cyclopropanecarbonyl)cyclopropanecarboxamide]
≥ 80%: mortality at 200 ppm [1] | effect mortality or growth inhibition at 200 ppm [8] | percent effect (mortality or growth inhibition) at 200 ppm [2] | mortality at 200 ppm [3] | percent effect (mortality or growth inhibition) at 200 ppm [5] | percent control (mortality, anti-feeding effect or growth inhibition) at 200 ppm [6] | percent effect (mortality, anti-feeding or growth inhibition) at 12.5 ppm [7]

CCn1c(C(F)(F)F)cc2nc(-c3nc(NC(=O)C4CC4)c(Cl)cc3S(=O)(=O)CC)n(C)c2c1=O [Compound A41, N-[3-chloro-6-[5-ethyl-3-methyl-4-oxo-6-(trifluoromethyl)imidazo[4,5-c]pyridin-2-yl]-5-ethylsulfonyl-2-pyridyl]cyclopropanecarboxamide]
≥ 80%: effect mortality or growth inhibition at 200 ppm [8] | percent effect (mortality or growth inhibition) at 200 ppm [2] | mortality at 200 ppm [3] | percent effect (mortality or growth inhibition) at 200 ppm [5] | percent control (mortality, anti-feeding effect or growth inhibition) at 200 ppm [6] | percent effect (mortality, anti-feeding or growth inhibition) at 12.5 ppm [7]

CCS(=O)(=O)c1ccc(NN)nc1-c1nc2cc(C(F)(F)F)n(C3CC3)c(=O)c2n1C [Compound A45, 5-cyclopropyl-2-(3-ethylsulfonyl-6-hydrazino-2-pyridyl)-3-methyl-6-(trifluoromethyl)imidazo[4,5-c]pyridin-4-one]
≥ 80%: effect mortality or growth inhibition at 200 ppm [8] | mortality at 200 ppm [3] | mortality at 24 ppm [4] | percent effect (mortality or growth inhibition) at 200 ppm [5] | percent control (mortality, anti-feeding effect or growth inhibition) at 200 ppm [6] | percent effect (mortality, anti-feeding or growth inhibition) at 12.5 ppm [7]

CCS(=O)(=O)c1ccc(NO)nc1-c1nc2cc(C(F)(F)F)n(C3CC3)c(=O)c2n1C [Compound A47, 5-cyclopropyl-2-[3-ethylsulfonyl-6-(hydroxyamino)-2-pyridyl]-3-methyl-6-(trifluoromethyl)imidazo[4,5-c]pyridin-4-one]
≥ 80%: mortality at 200 ppm [1] | effect mortality or growth inhibition at 200 ppm [8] | percent effect (mortality or growth inhibition) at 200 ppm [2] | mortality at 200 ppm [3] | mortality at 24 ppm [4] | percent effect (mortality or growth inhibition) at 200 ppm [5] | percent control (mortality, anti-feeding effect or growth inhibition) at 200 ppm [6]

CCS(=O)(=O)c1ccc(NC)nc1-c1nc2cc(C(F)(F)F)n(C3CC3)c(=O)c2n1C [Compound A51, 5-cyclopropyl-2-[3-ethylsulfonyl-6-(methylamino)-2-pyridyl]-3-methyl-6-(trifluoromethyl)imidazo[4,5-c]pyridin-4-one]
≥ 80%: mortality at 200 ppm [1] | effect mortality or growth inhibition at 200 ppm [8] | percent effect (mortality or growth inhibition) at 200 ppm [2] | mortality at 200 ppm [3] | mortality at 24 ppm [4] | percent effect (mortality or growth inhibition) at 200 ppm [5] | percent control (mortality, anti-feeding effect or growth inhibition) at 200 ppm [6] | percent effect (mortality, anti-feeding or growth inhibition) at 12.5 ppm [7]

CCn1c(C(F)(F)F)cc2nc(-c3nc(Cl)c(N)cc3S(=O)(=O)CC)n(C)c2c1=O [Compound A53, 2-(5-amino-6-chloro-3-ethylsulfonyl-2-pyridyl)-5-ethyl-3-methyl-6-(trifluoromethyl)imidazo[4,5-c]pyridin-4-one]
≥ 80%: effect mortality or growth inhibition at 200 ppm [8] | mortality at 200 ppm [3] | percent effect (mortality or growth inhibition) at 200 ppm [5] | percent control (mortality, anti-feeding effect or growth inhibition) at 200 ppm [6] | percent effect (mortality, anti-feeding or growth inhibition) at 12.5 ppm [7]

CCn1c(C(F)(F)F)cc2nc(-c3ncc(N(C)N)cc3S(=O)(=O)CC)n(C)c2c1=O [Compound A56, 2-[5-[amino(methyl)amino]-3-ethylsulfonyl-2-pyridyl]-5-ethyl-3-methyl-6-(trifluoromethyl)imidazo[4,5-c]pyridin-4-one]
≥ 80%: effect mortality or growth inhibition at 200 ppm [8] | percent effect (mortality or growth inhibition) at 200 ppm [2] | mortality at 200 ppm [3] | percent effect (mortality or growth inhibition) at 200 ppm [5] | percent control (mortality, anti-feeding effect or growth inhibition) at 200 ppm [6] | percent effect (mortality, anti-feeding or growth inhibition) at 12.5 ppm [7]
